Results as given in patent US10689363B2 (Merck Patent GmbH, priority 2017, dated 2020).
Like-named read-outs stand apart in the source and are kept apart here.

How the values were obtained:
[1] = pH 6.5
[2] = Water Vapour Sorption isotherm (25° C., DVS-Intrinsic), hygroscopicity acc. to Ph. Eur. 5.11.; type: physicochemical; conditions: for water uptake levels: 25° C.
Protocol: (§1) (based on multiple measurements on different samples of form A2). […] DSC scan of form A2 was acquired on a Mettler-Toledo DSC 821 with a heating rate of 50 K/min, using nitrogen purge gas at 50 mL/min. TGA scan of form A2 was acquired on a Mettler-Toledo TGA 851 with a heating rate of 5 K/min, using nitrogen purge gas at 50 mL/min. […] Eur. Criteria (section 5.11.). Water Vapour Sorption isotherm was acquired on a DVS-Intrinsic system from SMS.
(based on multiple measurements on different samples of form NF5). […] Eur. Criteria (section 5.11.). […] Water Vapour Sorption isotherm was acquired on a DVS-Intrinsic system from SMS.
(based on multiple measurements on one sample of form NF6). […] Eur. Criteria (section 5.11.). […] Water Vapour Sorption isotherm was acquired on a DVS-Intrinsic system from SMS.
Eur. Criteria (section 5.11.). […] Water Vapour Sorption isotherm was acquired on a DVS-Intrinsic system from SMS.
as §1, with “Other physical properties of” for “(based on multiple measurements on different samples of”, “form Fumarate-NF1 include the following: ^1H-NMR spectroscopic data reveal a API:Fumarate molar ratio of 1:1.” for “form A2).”, “form Fumarate-NF1” for “form A2”, “of 5” for “of 50”, “5.11.). […]” for “5.11.).”
Other physical properties of form Maleate-NF1 include the following: ^1H-NMR spectroscopic data reveal a API:Maleate molar ratio of 1:1. […] DSC scan of form Maleate-NF1 was acquired on a Mettler-Toledo DSC 821 with a heating rate of 5 K/min, using nitrogen purge gas at 50 mL/min. TGA scan of form Maleate-NF1 was acquired on a Mettler-Toledo TGA 851 with a heating rate of 5 K/min, using nitrogen purge gas at 50 mL/min. […] Form Maleate-NF1 can be classified as non-hygroscopic according to Ph. Eur. Criteria (section 5.11.). […] Water Vapour Sorption isotherm was acquired on a DVS-Intrinsic system from SMS.
Other physical properties of form Citrate-NF1 include the following: ^1H-NMR spectroscopic data reveal a API:Citrate molar ratio of 1:1. […] DSC scan of form Citrate-NF1 was acquired on a Mettler-Toledo DSC 821 with a heating rate of 5 K/min, using nitrogen purge gas at 50 mL/min. TGA scan of form Citrate-NF1 was acquired on a Mettler-Toledo TGA 851 with a heating rate of 5 K/min, using nitrogen purge gas at 50 mL/min. […] Eur. Criteria (section 5.11.). […] Water Vapour Sorption isotherm was acquired on a DVS-Intrinsic system from SMS.
(based on multiple measurements on different samples of form A1). […] DSC scan of form A1 was acquired on a Mettler-Toledo DSC 821 with a heating rate of 50 K/min, using nitrogen purge gas at 50 mL/min. TGA scan of form A1 was acquired on a Mettler-Toledo TGA 851 with a heating rate of 5 K/min, using nitrogen purge gas at 50 mL/min. […] Eur. Criteria (section 5.11.). […] Water Vapour Sorption isotherm was acquired on a DVS-Intrinsic system from SMS. […] Dissolution level of form A1 in Fasted-State Simulated Intestinal Fluid [FaSSIF, pH 6.5] at 37° C. was determined to be approx. 36 μg/mL (after 2 h), and dissolution level of form A1 in Fed-State Simulated Intestinal Fluid [FeSSIF, pH 5.0] at 37° C. was determined to be approx. 214 μg/mL (after 2 h), respectively (see example 11).
All forms were characterized according to standard methods which are found in e.g. Rolf Hilfiker, ‘Polymorphism in the Pharmaceutical Industry’. Wiley-VCH. Weinheim 2006 (Chapter 6: X-Ray Diffraction. Chapter 6: Vibrational Spectroscopy. Chapter 3: Thermal Analysis, Chapter 9: Water Vapour Sorption, and references therein); and H. G. Brittain, ‘Polymorphism in Pharmaceutical Solids. Vol. 95. Marcel Dekker Inc., New York 1999 (Chapter 6 and references therein).

[3] = Thermodynamic solubility (24 h, 37° C.) in FaSSIF medium or USP Phosphate buffer; type: physicochemical; conditions: 24 h; for Thermodynamic solubility FaSSIF pH 6.5: FaSSIF pH 6.5, 37° C.; for Thermodynamic solubility PBS buffer 7.4: USP Phosphate buffer pH 7.4, 37° C.
[4] = Mini-dissolution in FaSSIF / FeSSIF medium at 37° C.; type: physicochemical; conditions: for Dissolution levels in FaSSIF pH 6.5: FaSSIF pH 6.5, 37° C.; for Dissolution levels in FeSSIF pH 5.0: FeSSIF pH 5.0, 37° C.
Protocol: All dispersions were agitated at 37° C. for up to 2 hours. At defined time intervals (30 min. 60 min, 120 min), sample aliquots of homogeneous dispersions were withdrawn by a syringe, and filtrated via syringe filter adapters (PTFE, 0.45 μm).

[5] = relative humidity range 0-80% rh
[6] = relative humidity range 90-98% rh

kinetic solubility levels (4 h), factor higher vs form A1 [1]	hygroscopicity classification according to Ph. Eur. Criteria (section 5.11.) [2]	hygroscopicity classification according to Ph. Eur. Criteria (section 5.11.) ([2]; listed as NF6)	water uptake levels [2, 5]	water uptake levels [2, 6]	Thermodynamic solubility FaSSIF pH 6.5 [3]	Thermodynamic solubility FaSSIF pH 6.5 ([3]; listed as Free base form A1)	Thermodynamic solubility PBS buffer 7.4 [3]	Thermodynamic solubility PBS buffer 7.4 ([3]; listed as Free base form A1)	Dissolution levels in FaSSIF pH 6.5 ([4]; 30 min)	Dissolution levels in FaSSIF pH 6.5 ([4]; 60 min)	Dissolution levels in FaSSIF pH 6.5 ([4]; 120 min (2 h))	Dissolution levels in FaSSIF pH 6.5 ([4]; 120 min (2 h), listed as Free base form Al)	Dissolution levels in FeSSIF pH 5.0 ([4]; 30 min)	Dissolution levels in FeSSIF pH 5.0 ([4]; 60 min)	Dissolution levels in FeSSIF pH 5.0 ([4]; 120 min (2 h))	Dissolution levels in FeSSIF pH 5.0 ([4]; 120 min (2 h), listed as Free base form A1)	hygroscopicity classification according to Ph. Eur. Criteria (section 5.11.) ([2]; listed as NF5)	water uptake levels ([2]; relative humidity level of 98% rh)	water uptake levels ([2]; relative humidity range 0-90% rh)	Structure (SMILES)
~3	slightly hygroscopic	Slightly hygroscopic	≤ 2 wt %	≤ 3 wt %	–	–	–	–	–	–	–	–	–	–	–	–	–	–	–	C=CC(=O)N1CCC(CNc2ncnc(N)c2-c2ccc(Oc3ccccc3)cc2)CC1 [form NF6, 1-(4-{[6-Amino-5-(4-phenoxy-phenyl)-pyrimidin-4-ylamino]-methyl}-piperidin-1-yl)-propenone]
–	slightly hygroscopic	–	≤ 1 wt %	≤ 2 wt %	approx. 21 μg/mL	21 μg/mL	approx. 14 μg/mL	14 µg/mL	25 μg/mL	33 μg/mL	approx. 36 μg/mL	36 μg/mL	190 μg/mL	205 μg/mL	approx. 214 μg/mL	214 μg/mL	–	–	–	C=CC(=O)N1CCC(CNc2ncnc(N)c2-c2ccc(Oc3ccccc3)cc2)CC1 [form A1, 1-(4-{[6-Amino-5-(4-phenoxy-phenyl)-pyrimidin-4-ylamino]-methyl}-piperidin-1-yl)-propenone]
~1.5	slightly hygroscopic	–	–	–	–	–	–	–	–	–	–	–	–	–	–	–	Slightly hygroscopic	≤ 2 wt %	≤ 1 wt %	C=CC(=O)N1CCC(CNc2ncnc(N)c2-c2ccc(Oc3ccccc3)cc2)CC1 [form NF5, 1-(4-{[6-Amino-5-(4-phenoxy-phenyl)-pyrimidin-4-ylamino]-methyl}-piperidin-1-yl)-propenone]
